Assay results as given in ChEMBL document CHEMBL4052645, “Discovery of potent and efficacious pyrrolopyridazines as dual JAK1/3 inhibitors” (Bioorg Med Chem Lett, 2017).
pEC50: −log10 of the molar value.

Experiments:
Mus musculus = assay: In vivo inhibition of JAK1/JAK3 in Balb/c mouse assessed as reduction in IL15-induced STAT5 phosphorylation at […], po after 4 hrs; assay type: functional, organism-based
[1] = target: NUAK family SNF1-like kinase 1 (Homo sapiens) (UniProt O60285); assay: Inhibition of human NUAK1 (25 to I332 residues) expressed in bacterial expression system assessed as residual activity at 50 nM by KINOMEscan assay relative to control
[2] = target: Tyrosine-protein kinase JAK1 (Homo sapiens, UniProt P23458); assay: Inhibition of human JAK1 (V856 to K1154 residues) expressed in bacterial expression system assessed as residual activity at 50 nM by KINOMEscan assay relative to control
[3] = target: Non-receptor tyrosine-protein kinase TNK1 (Homo sapiens) (UniProt Q13470); assay: Inhibition of wild-type human full length TNK1 (M1 to P661 residues) expressed in bacterial expression system assessed as residual activity at 50 nM by Kinomescan method relative to control
[4] = target: Serine/threonine-protein kinase ULK2 (Homo sapiens) (UniProt Q8IYT8); assay: Inhibition of wild-type human partial length ULK2 (M1 to S301 residues) expressed in mammalian expression system assessed as residual activity at 50 nM by Kinomescan method relative to control
[5] = target: Serine/threonine-protein kinase DCLK3 (Homo sapiens) (UniProt Q9C098); assay: Inhibition of wild-type human partial length DCAMKL3 (E140 to V628 residues) expressed in bacterial expression system assessed as residual activity at 50 nM by Kinomescan method relative to control
[6] = target: Protein kinase C epsilon type (Homo sapiens) (UniProt Q02156); assay: Inhibition of wild-type human partial length PKCE (A378 to P737 residues) expressed in mammalian expression system assessed as residual activity at 50 nM by Kinomescan method relative to control
[7] = target: Receptor tyrosine-protein kinase erbB-2 (Homo sapiens) (UniProt P04626); assay: Inhibition of wild-type human partial length ERBB2 (K646 to V1225 residues) expressed in mammalian expression system assessed as residual activity at 50 nM by Kinomescan method relative to control
[8] = target: Serine/threonine-protein kinase SIK1 (Homo sapiens) (UniProt P57059); assay: Inhibition of wild-type human partial length SIK (M1 to Y304 residues) expressed in bacterial expression system assessed as residual activity at 50 nM by Kinomescan method relative to control
[9] = tested on: Phosphatidylinositol 4,5-bisphosphate 3-kinase catalytic subunit alpha isoform (Homo sapiens), P42336 [Q546K]; assay: Inhibition of human partial length PIK3CA Q546K mutant (R108 to N1068 residues) expressed in mammalian expression system assessed as residual activity at 50 nM by Kinomescan method relative to control
[10] = target: Casein kinase II subunit alpha' (Homo sapiens) (UniProt P19784); assay: Inhibition of wild-type human full length CK2A2 (M1 to R350 residues) expressed in mammalian expression system assessed as residual activity at 50 nM by Kinomescan method relative to control
[11] = target: Serine/threonine-protein kinase 32A (Homo sapiens) (UniProt Q8WU08); assay: Inhibition of wild-type human full length STK32A (M1 to L396 residues) expressed in mammalian expression system assessed as residual activity at 50 nM by Kinomescan method relative to control
[12] = target: Serine/threonine-protein kinase PLK1 (Homo sapiens) (UniProt P53350); assay: Inhibition of wild-type human partial length PLK1 (A33 to F325 residues) expressed in mammalian expression system assessed as residual activity at 50 nM by Kinomescan method relative to control
[13] = target: Megakaryocyte-associated tyrosine-protein kinase (Homo sapiens) (UniProt P42679); assay: Inhibition of wild-type human full length CTK (M43 to P508 residues) expressed in mammalian expression system assessed as residual activity at 50 nM by Kinomescan method relative to control
[14] = target: Serine/threonine-protein kinase Chk1 (Homo sapiens) (UniProt O14757); assay: Inhibition of wild-type human partial length CHK1 (M1 to G289 residues) expressed in bacterial expression system assessed as residual activity at 50 nM by Kinomescan method relative to control
[15] = target: Tyrosine-protein kinase Fyn (Homo sapiens) (UniProt P06241); assay: Inhibition of wild-type human partial length FYN (T243 to L534 residues) expressed in bacterial expression system assessed as residual activity at 50 nM by Kinomescan method relative to control
[16] = target: Tyrosine-protein kinase Blk (Homo sapiens) (UniProt P51451); assay: Inhibition of wild-type human partial length BLK (G211 to L503 residues) expressed in bacterial expression system assessed as residual activity at 50 nM by Kinomescan method relative to control
[17] = target: CDK4/Cyclin D3 (Homo sapiens) (UniProt P11802+P30281); assay: Inhibition of wild-type human full length CDK4/cyclinD3 (M1 to E303 residues) expressed in mammalian expression system assessed as residual activity at 50 nM by Kinomescan method relative to control
[18] = target: Serine/threonine-protein kinase 17B (Homo sapiens) (UniProt O94768); assay: Inhibition of wild-type human full length DRAK2 (M1 to C372 residues) expressed in bacterial expression system assessed as residual activity at 50 nM by Kinomescan method relative to control
[19] = target: Vascular endothelial growth factor receptor 3 (Homo sapiens) (UniProt P35916); assay: Inhibition of wild-type human partial length FLT4 (E821 to E1196 residues) expressed in bacterial expression system assessed as residual activity at 50 nM by Kinomescan method relative to control
[20] = target: MAP kinase-activated protein kinase 5 (Homo sapiens) (UniProt Q8IW41); assay: Inhibition of wild-type human partial length MAPKAPK5 (M1 to D322 residues) expressed in mammalian expression system assessed as residual activity at 50 nM by Kinomescan method relative to control
[21] = target: Phosphatidylinositol 4,5-bisphosphate 3-kinase catalytic subunit beta isoform (Homo sapiens) (UniProt P42338); assay: Inhibition of wild-type human partial length PI3KCB (P118 to S1070 residues) expressed in mammalian expression system assessed as residual activity at 50 nM by Kinomescan method relative to control
[22] = target: RAF proto-oncogene serine/threonine-protein kinase (Homo sapiens) (UniProt P04049); assay: Inhibition of wild-type human partial length RAF1 (I330 to T640 residues) expressed in bacterial expression system assessed as residual activity at 50 nM by Kinomescan method relative to control
[23] = target: Tyrosine-protein kinase TXK (Homo sapiens) (UniProt P42681); assay: Inhibition of wild-type human partial length TXK (L238 to W527 residues) expressed in bacterial expression system assessed as residual activity at 50 nM by Kinomescan method relative to control
[24] = target: Serine/threonine-protein kinase ULK3 (Homo sapiens) (UniProt Q6PHR2); assay: Inhibition of wild-type human partial length ULK3 (M1 to Q290 residues) expressed in mammalian expression system assessed as residual activity at 50 nM by Kinomescan method relative to control

Row | SMILES | pEC50 (Mus musculus) | Activity [1] | Activity [2] | Activity [3] | Activity [4] | Activity [5] | Activity [6] | Activity [7] | Activity [8] | Activity [9] | Activity [10] | Activity [11] | Activity [12] | Activity [13] | Activity [14] | Activity [15] | Activity [16] | Activity [17] | Activity [18] | Activity [19] | further results
1 | CC1(C)[C@H](Nc2c(C(N)=O)cnn3cc(-c4ccccc4)cc23)CC[C@]1(C)N | 6.90 | 2% | 1.4% | 34% | 36% | 39% | 58% | 76% | 80% | 84% | 92% | 92% | 94% | 95% | 98% | 99% | 100% | 100% | 100% | 100% | Activity [20]: 100%; Activity [21]: 100%; Activity [22]: 100%; Activity [23]: 100%; Activity [24]: 100%
2 | COc1ccc(-c2cc3c(N[C@@H]4CC[C@](C)(N)C4(C)C)c(C(N)=O)cnn3c2)cn1 | 7.17 | 6% | 9% | 92% | 75% | 64% | 72% | 99% | 96% | 100% | 85% | 100% | 100% | 85% | 85% | 100% | 95% | 80% | 100% | 86% | Activity [20]: 100%; Activity [21]: 100%; Activity [22]: 100%; Activity [23]: 100%; Activity [24]: 100%
